Reference: ChEMBL document CHEMBL4680225, “Design and development of ((4-methoxyphenyl)carbamoyl) (5-(5-nitrothiophen-2-yl)-1,3,4-thiadiazol-2-yl)amide analogues as Mycobacterium tuberculosis ketol-acid reductoisomerase inhibitors” (Eur J Med Chem, 2020)
In brackets after ≈: the same amount, converted by molar mass.

What was measured:
[1] = system: Mycobacterium tuberculosis; experiment: Antitubercular activity against early logarithmic phase cultures of Mycobacterium tuberculosis H37Rv treated for 6 days and measured 2 days post last dose; type: functional, organism-based; details: time 8.0 day
[2] = system: Mycobacterium tuberculosis; experiment: Antitubercular activity against Mycobacterium tuberculosis H37Rv measured after 1 week by microplate alamar blue assay; type: functional; details: 168 h, time 1 weeks
[3] = system: Mycobacterium tuberculosis; experiment: Antibiofilm activity against Mycobacterium tuberculosis assessed as log reduction in bacterial growth at 10 uM measured after 1 week relative to control; type: functional, H37Rv; details: time 1 weeks
[4] = system: Mycobacterium tuberculosis; experiment: Inhibition of N-terminal 6His-taggged Mycobacterium tuberculosis KARI expressed in Escherichia coli BL21 at 100 uM using 2-acetolactate as substrate preincubated for 30 mins followed by substrate addition in presence of NADPH relative to control
[5] = system: Mycobacterium tuberculosis; experiment: Antitubercular activity against Mycobacterium tuberculosis H37Rv infected in mouse primary macrophages assessed as log reduction in bacterial growth at 10 uM measured after 48 hrs relative to control; type: functional, Primary macrophage
[6] = Protection index, ratio IC50 for HEK293 cells to MIC for antitubercular activity against Mycobacterium tuberculosis H37Rv
[7] = system: Mycobacterium tuberculosis; experiment: Antitubercular activity against 6-weeks nutrient starved phase cultures of Mycobacterium tuberculosis H37Rv assessed as log reduction in bacterial growth at 10 uM treated for 7 days measured after 4 weeks relative to control; type: functional; details: time 5 weeks
[8] = Inhibition of N-terminal 6His-taggged Mycobacterium tuberculosis KARI expressed in Escherichia coli BL21 using 2-acetolactate as substrate preincubated for 30 mins followed by substrate addition in presence of NADPH
[9] = system: HEK293; experiment: Cytotoxicity against HEK293 cells assessed as reduction in cell viability measured after 48 hrs by MTT assay; type: cell-based; details: Homo sapiens, HEK293, 48 h
[10] = system: Mycobacterium tuberculosis; experiment: Antimycobacterial activity against dormant Mycobacterium tuberculosis H37Rv under nutrient deprived condition; type: functional, organism-based; details: TDE = time-dependent effect
[11] = system: Mycobacterium tuberculosis; experiment: Antimycobacterial activity against dormant Mycobacterium tuberculosis H37Rv incubated for 7 days under nutrient deprived condition; type: functional, organism-based; details: time 7.0 day
[12] = system: Mycobacterium tuberculosis; experiment: Antitubercular activity against early logarithmic phase cultures of Mycobacterium tuberculosis H37Rv at 1.56 to 100 uM; type: functional, organism-based; details: dose 1.56-100 µM, TDE = time-dependent effect

## O=[N+]([O-])c1ccc(-c2nnc(NC(=S)Nc3ccc(F)cc3)s2)o1
[1]
  Activity: Dose-dependent effect
[2]
  MIC: 0.78 µM (≈ 0.285 µg/mL)
[3]
  log(activity): 1.3
[4]
  inhibition: > 50%
[5]
  log(activity): 1.9
[6]
  PI: 92.9
[7]
  log(activity): 2.3
[8]
  Ki: 5.48 µM
[9]
  IC50: 72.5 µM

## CO[C@H]1/C=C/O[C@@]2(C)Oc3c(C)c(O)c4c(O)c(c(/C=N/N5CCN(C)CC5)c(O)c4c3C2=O)NC(=O)/C(C)=C\C=C\[C@H](C)[C@H](O)[C@@H](C)[C@@H](O)[C@@H](C)[C@H](OC(C)=O)[C@@H]1C [RIFAMPIN]
[2]
  MIC: 0.5 µM (≈ 0.411 µg/mL)
[3]
  log(activity): 0.9
[7]
  log(activity): 1.8

## COc1c(N2C[C@@H]3CCCN[C@@H]3C2)c(F)cc2c(=O)c(C(=O)O)cn(C3CC3)c12 [MOXIFLOXACIN]
[3]
  log(activity): 1.8
[7]
  log(activity): 2

## O=[N+]([O-])c1ccc(-c2nnc(NC(=S)Nc3ccc(Cl)cc3)s2)s1
[2]
  MIC: 25 µM (≈ 9.95 µg/mL)
[3]
  log(activity): 1.2
[4]
  inhibition: > 50%
[6]
  PI: 4.1
[7]
  log(activity): 1
[8]
  Ki: 8.35 µM
[9]
  IC50: 102 µM

## NNC(=O)c1ccncc1 [ISONIAZID]
[2]
  MIC: 0.4 µM (≈ 0.0549 µg/mL)
[3]
  log(activity): 1
[5]
  log(activity): 2.5
[7]
  log(activity): 1.5

## CC[C@@H](CO)NCCN[C@@H](CC)CO [ETHAMBUTOL]
[2]
  MIC: 7.63 µM (≈ 1.56 µg/mL)

## COc1ccc(NC(=S)Nc2nnc(-c3ccc([N+](=O)[O-])o3)s2)cc1
[10]
  Activity: Tde
[1]
  Activity: Dose-dependent effect
[2]
  MIC: 0.78 µM (≈ 0.294 µg/mL)
[3]
  log(activity): 1.8
[4]
  inhibition: > 50%
[11]
  Activity: Dose-dependent effect
[5]
  log(activity): 1.7
[6]
  PI: 110.2
[7]
  log(activity): 2.5
[8]
  Ki: 2.02 µM
[9]
  IC50: 86 µM

## COc1ccc(NC(=O)Nc2nnc(-c3ccc([N+](=O)[O-])s3)s2)cc1
[8]
  Ki: 3.06 µM

## COc1ccc(NC(=S)Nc2nnc(-c3ccc([N+](=O)[O-])s3)s2)cc1
[2]
  MIC: 0.78 µM (≈ 0.307 µg/mL)
[3]
  log(activity): 1.5
[4]
  inhibition: > 50%
[5]
  log(activity): 2.2
[6]
  PI: 87.4
[7]
  log(activity): 1.8
[8]
  Ki: 9.27 µM
[9]
  IC50: 68.2 µM

## CC(=O)c1ccc(S(=O)(=O)Nc2nnc(-c3ccc([N+](=O)[O-])o3)s2)cc1
[10]
  Activity: Tde
[2]
  MIC: 1.56 µM (≈ 0.615 µg/mL)
[3]
  log(activity): 1.1
[12]
  Activity: Tde
[4]
  inhibition: > 50%
[11]
  Activity: Dose-dependent effect
[5]
  log(activity): 1.6
[6]
  PI: 36.6
[7]
  log(activity): 2.1
[8]
  Ki: 4.72 µM
[9]
  IC50: 57.1 µM
